From patent publication US20090203661A1, “Betulinic acid, derivatives and analogs thereof and uses therefor” (priority 2006, published 2009)
Read-outs that look alike come from different tables or passages of the source.

Assays:
SW480 cells = assay: Cell proliferation assay, SW480 cells; format: cell-based, human; details: read-out: IC50 values, inhibition of growth
Method: SW480, HT-29 and HCT-15 human colon cancer cells were provided by Dr. Stan Hamilton (M. D. Anderson Cancer Center (Houston, Tex.). Panc-28 human pancreatic cancer cells and 3T3-L1 pre-adipocytes were obtained from American Type Culture Collection (Manassas, Va.). SW480, HT-29 and Panc-28 cells were maintained in Dulbecco's modified/Ham's F-12 (Sigma-Aldrich, St Louis, Mo.) with phenol red supplemented with 0.22% sodium bicarbonate, 0.011% sodium pyruvate, 5% fetal bovine serum, and 10 mL/L 100× antibiotic antimycotic solution (Sigma). HCT-15 cells were maintained in RPMI 1640 (Sigma) supplemented with 0.22% sodium bicarbonate, 0.011% sodium pyruvate, 0.45% glucose, 0.24% HEPES, 10% fetal bovine serum, and 10 mL/L of 100× antibiotic antimycotic solution (Sigma). Cells were maintained at 37° C. in the presence of 5% CO2.
This assay is performed in 12-well tissue culture plates at the concentration of 2×10^4 cells per well, using DMEM/Ham's F-12 media containing 2.5% charcoal stripped FBS. The cells were counted on the initial day using a Z1 cell counter (Beckman Coulter, Fullerton, Calif.) and then were treated either with vehicle (DMSO) or the indicated triterpenoid compounds, each sample in triplicate. Every 48 hr, fresh medium was added along with the indicated compounds. The count of the cells was taken after 2, 4 and 6 days. The results are expressed as means±S.E for each set of triplicate.

PPARγ [1] = assay: PPARγ transactivation (PPARγ-GAL4/pGAL4, PPRE3-luc) in SW480 cells; format: cell-based; details: for transactivation, PPARγ-GAL4/pGAL4 and PPRE3-luc: SW480, 2.5-10 μM; for effect of PPARγ antagonist T007 on induced activities: SW480, cotreatment with T007
Method: (§1) Cells were seeded onto the 12-well plates and 0.4 μg of GAL4-Luc, 0.04 μg of β-GAL, 0.04 μg of GAL4DBD-PPARγ, and 0.4 μg of p21-luc(FL) containing −2325 to +8 insert, 0.4 μg of p21-luc (−124) containing −124 to +8 insert and 0.4 μg of p21-LUC (−60) containing −60 to +8 insert were transfected using LipofectAMINE reagent (Invitrogen) following the manufacturer's protocol. Cells were treated either with vehicle or respective compounds suspended in complete medium after 6 hr of transfection. Cell lysate is extracted after 20-22 hr by adding 100 μl of 1× reporter lysis buffer per well and 30 μl of this extract is used to quantitate the luciferase activity using Lumicount (Perkin-Elmer Life and Analytical Sciences). Each experiment is done in triplicate and the results are normalized to the β-GAL activity.

PPARγ [2] = assay: PPARγ transactivation (PPARγ-GAL4/pGAL4, PPRE3-luc) in Panc-28 cells; format: cell-based
Method: as §1

Panc-28 cells = assay: Western blot of p21, p27, cyclin D1 in Panc-28 cells; format: cell-based, human; details: for effect of T007 on induction of p21 protein: 5 μM compound plus 10 μM T007; for cyclin D1 expression / p27 expression: Panc-28; for p21 protein expression: Panc-28, 24 hr
Method: SW480, HT-29, HCT-15 and Panc-28 (3×10^5) colon cancer cells were seeded in 6-well tissue culture plates in DMEM/Ham's F-12 medium containing 2.5% charcoal-stripped FBS. Protein is extracted from the cells treated either with vehicle or indicated compounds suspended for 24 hr except for caveolin-1 protein which was done for 72 hr. Samples were extracted in high salt buffer [50 mmol/L HEPES, 500 mmol/L NaCl, 1.5 mmol/L MgCl2, 1 mmol/L EGTA, 10% glycerol, and 1% Triton X-100 (pH 7.5), and 5 μL/mL protease inhibitor cocktail (Sigma-Aldrich)]. Samples were incubated at 100° C. for 2 min, separated on either 10% or 12% SDS-PAGE gels and then transferred to polyvinylidene difluoride membrane (PVDF; Bio-Rad, Hercules, Calif.). The PVDF membrane was blocked in 5% TBST-Blotto (10 mM Tris HCl, 150 mM NaCl, pH 8.0, 0.05% Triton X-100, and 5% nonfat dry milk) for about 30 min and was then incubated in fresh 5% TBST-Blotto with 1:1000 for caveolin-1 (Santa Cruz Biotechnology, Santa Cruz, Calif.), 1:1000 for p21 (BD Pharmingen, Frank lakes, NJ) and 1:10000 for β-actin (Sigma) primary antibody overnight with gentle shaking at 4° C. After washing with TBST for 10 min, the membrane was incubated with respective secondary antibody (1:5000) (Santa cruz, Calif.) in 5% TBST-Blotto for 3 hr. The membrane is then washed with TBST for 10 min, incubated with chemiluminiscence reagent from Perkin Elmer for one min and then exposed to Kodak X-OMAT AR autoradiography film (Eastman Kodak, Rochester, N.Y.).

HT-29 cells = assay: KLF4 mRNA (RT-PCR) in HT-29 cells; format: cell-based, human; details: for effect of T007 on induction of KLF4 mRNA: HT-29, cotreatment with T007; for KLF4 mRNA levels: HT-29
Method: SW480 and HT29 colon cancer cells were treated either with vehicle (DMSO) or indicated compounds and after 24 hr total RNA was extracted using RNeasy Mini kit (Qiagen, Inc., Valencia, Calif.). RNA concentration was measured by UV 260:280 nm absorption ratio and 2 μg RNA was used to synthesize cDNA using Reverse Transcription System (Promega). PCR conditions were as follows: initial denaturation at 94° C. (1 min) followed by 28 cycles of denaturation for 30 s at 94° C., annealing for 60 s at 55° C. and extension at 72° C. for 60 s and a final extension step at 72° C. for 5 min. The mRNA levels were normalized using GAPDH as an internal housekeeping gene. Primers obtained from IDT and used for amplification are as follows: KLF4 (sense 5′-CTATGGCAGGGAGTCCGCTCC-3′ (SEQ ID NO: 1); antisense 5′-ATGACCGACGGGCTGCCGTAC-3′ (SEQ ID NO: 2)) and GAPDH (sense 5′-ACGGATTTGGTCGTATTGGGCG-3′ (SEQ ID NO: 3); antisense 5′-CTCCTGGAAGATGGTGATGG-3′ (SEQ ID NO: 4). PCR products were electrophoresed on 1% agarose gels containing ethidium bromide and visualized under UV transillumination.

Structure (SMILES) | IC50 (SW480 cells; Homo sapiens) | transactivation, PPARγ-GAL4/pGAL4 and PPRE3-luc (PPARγ [1]) | luciferase activity, PPARγ-GAL4/pGAL4 and PPRE3-luc (PPARγ [2]; Panc-28) | effect of T007 on induction of p21 protein (Panc-28 cells) | effect of T007 on induction of KLF4 mRNA (HT-29 cells) | IC50 (SW480 cells) | effect of PPARγ antagonist T007 on induced activities (PPARγ [1]) | induction, PPARγ-GAL4/pGAL4 (PPARγ [2]; Panc-28) | induction, PPRE3-luc (PPARγ [2]; Panc-28, data not shown) | cyclin D1 expression (Panc-28 cells) | p27 expression (Panc-28 cells) | p21 protein expression (Panc-28 cells) | KLF4 mRNA levels (HT-29 cells) | effect of T007 on induced luciferase activity (PPARγ [2]; Panc-28, cotreatment with T007)
C=C(C)[C@@H]1CC[C@]2(C(=O)O)CC[C@]3(C)[C@H](CC[C@@H]4[C@@]5(C)CC[C@H](O)C(C)(C)[C@@H]5CC[C@]43C)[C@@H]12 [betulinic acid, Betulinic acid] | 1 to 5 µM | inactive | inactive | not inhibited | did not inhibit |  |  |  |  |  |  |  |  | 
COC(=O)C12CCC(C(C)C)C1C1CCC3C4(C)C=C(C#N)C(=O)C(C)(C)C4CCC3(C)C1(C)CC2 (stereo not drawn) [CN-BA-Me, Methyl 2-cyano-lup-1-en-3-oxo-20-oate] |  | induced transactivation |  | significantly inhibited | did not inhibit | 1 to 2.5 µM | inhibited by T007 | minimal induction | no induction | downregulation of cyclin D1 | induction of p27 | induce p21 protein expression | induced KLF4 mRNA levels | 
CC(C)C1CCC2(C(=O)O)CCC3(C)C(CCC4C5(C)C=C(C#N)C(=O)C(C)(C)C5CCC43C)C12 (stereo not drawn) [CN-BA] |  | induced transactivation | induced luciferase activity | significantly inhibited | did not inhibit | 1 µM | inhibited by T007 |  |  | downregulation of cyclin D1 | induction of p27 | induce p21 protein expression | induced KLF4 mRNA levels | inhibited
